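Where inhibition never reached the appropriate level, the endpoint shown equals the highest concentration tested. Otherwise, values were interpolated linearly from a five-concentration, 48-hour dose response in 96-well plates. The concentration for 50% growth inhibition is given as GI50.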 The source made the active and inactive calls. Cut-off read from the data, not from the text of the source: active = GI50 up to about 1.1 µM and inactive = higher.
Tests used:
Test in all cases: inhibition of tumour cell growth, NCI panel, 48 h
786-0 = test system: 786-0
A498 = test system: A498
A549 = test system: A549
ACHN = test system: ACHN
BT-549 = test system: BT-549
CAKI-1 = test system: CAKI-1
CCRF-CEM = test system: CCRF-CEM
COLO 205 = test system: COLO 205
DU-145 = test system: DU-145
EKVX = test system: EKVX
HCC 2998 = test system: HCC 2998
HCT-116 = test system: HCT-116
HCT-15 = test system: HCT-15
HL-60 = test system: HL-60
HOP-62 = test system: HOP-62
HOP-92 = test system: HOP-92
HT-29 = test system: HT-29
Hs-578T = test system: Hs-578T
IGROV-1 = test system: IGROV-1
K562 = test system: K562
KM12 = test system: KM12
LOX IMVI = test system: LOX IMVI
M14 = test system: M14
MCF7 = test system: MCF7
MDA-MB-231 = test system: MDA-MB-231
MDA-MB-435 = test system: MDA-MB-435
MDA-N = test system: MDA-N
MOLT-4 = test system: MOLT-4
Malme-3M = test system: Malme-3M
NCI-H226 = test system: NCI-H226
NCI-H23 = test system: NCI-H23
NCI-H460 = test system: NCI-H460
NCI-H522 = test system: NCI-H522
NCI/ADR-RES = test system: NCI/ADR-RES
OVCAR-3 = test system: OVCAR-3
OVCAR-4 = test system: OVCAR-4
OVCAR-5 = test system: OVCAR-5
OVCAR-8 = test system: OVCAR-8
PC-3 = test system: PC-3
RPMI-8226 = test system: RPMI-8226
RXF 393 = test system: RXF 393
SF-268 = test system: SF-268
SF-295 = test system: SF-295
SF-539 = test system: SF-539
SK-MEL-28 = test system: SK-MEL-28
SK-MEL-2 = test system: SK-MEL-2
SK-MEL-5 = test system: SK-MEL-5
SK-OV-3 = test system: SK-OV-3
SN12C = test system: SN12C
SNB-19 = test system: SNB-19
SNB-75 = test system: SNB-75
SR = test system: SR
SW-620 = test system: SW-620
T47D = test system: T47D
TK-10 = test system: TK-10
U-251 = test system: U-251
UACC-257 = test system: UACC-257
UACC-62 = test system: UACC-62
UO-31 = test system: UO-31

## CCOC(=O)CCC(NC(=O)c1ccc(Nc2cnc3ccc(C(F)(F)F)cc3n2)cc1)C(=O)OCC (stereo not drawn)
786-0
  GI50: 10.5 µM (inactive)
A498
  GI50: 26.4 µM (inactive)
A549
  GI50: > 34.6 µM (inactive)
ACHN
  GI50: 24.9 µM (inactive)
BT-549
  GI50: 20.9 µM (inactive)
CAKI-1
  GI50: 12 µM (inactive)
CCRF-CEM
  GI50: > 100 µM (inactive)
COLO 205
  GI50: > 100 µM (inactive)
DU-145
  GI50: > 26 µM (inactive)
EKVX
  GI50: 30.1 µM (inactive)
HCC 2998
  GI50: 81.1 µM (inactive)
HCT-116
  GI50: 14.5 µM (inactive)
HCT-15
  GI50: > 100 µM
HL-60
  GI50: > 100 µM (inactive)
HOP-62
  GI50: 14.1 µM (inactive)
HOP-92
  GI50: 8.36 µM (inactive)
HT-29
  GI50: > 80.5 µM (inactive)
Hs-578T
  GI50: 6.79 µM (inactive)
IGROV-1
  GI50: 10.9 µM (inactive)
K562
  GI50: > 100 µM (inactive)
KM12
  GI50: 24.2 µM (inactive)
LOX IMVI
  GI50: 36.7 µM (inactive)
M14
  GI50: > 100 µM (inactive)
MCF7
  GI50: 27.9 µM (inactive)
MDA-MB-231
  GI50: 4.59 µM (inactive)
MDA-MB-435
  GI50: > 80.9 µM (inactive)
MDA-N
  GI50: > 100 µM (inactive)
MOLT-4
  GI50: 2.2 µM (inactive)
Malme-3M
  GI50: 41 µM (inactive)
NCI-H226
  GI50: 28.1 µM (inactive)
NCI-H23
  GI50: 35 µM (inactive)
NCI-H460
  GI50: 8.02 µM (inactive)
NCI-H522
  GI50: 65.6 µM (inactive)
NCI/ADR-RES
  GI50: 11 µM (inactive)
OVCAR-3
  GI50: > 100 µM (inactive)
OVCAR-4
  GI50: 8.2 µM (inactive)
OVCAR-5
  GI50: > 100 µM (inactive)
OVCAR-8
  GI50: 8.81 µM (inactive)
PC-3
  GI50: > 81.8 µM (inactive)
RPMI-8226
  GI50: > 22.4 µM (inactive)
RXF 393
  GI50: 15 µM (inactive)
SF-268
  GI50: 15 µM (inactive)
SF-295
  GI50: 31.1 µM (inactive)
SF-539
  GI50: 13.3 µM (inactive)
SK-MEL-28
  GI50: > 100 µM (inactive)
SK-MEL-2
  GI50: > 96.4 µM (inactive)
SK-MEL-5
  GI50: > 64.7 µM (inactive)
SK-OV-3
  GI50: 16.5 µM (inactive)
SN12C
  GI50: > 83.8 µM (inactive)
SNB-19
  GI50: 13 µM (inactive)
SNB-75
  GI50: 8.24 µM (inactive)
SR
  GI50: > 100 µM (inactive)
SW-620
  GI50: > 70.6 µM (inactive)
T47D
  GI50: 5.45 µM (inactive)
TK-10
  GI50: 4.97 µM (inactive)
U-251
  GI50: 11.6 µM (inactive)
UACC-257
  GI50: > 74.3 µM (inactive)
UACC-62
  GI50: 20.6 µM (inactive)
UO-31
  GI50: 45.5 µM (inactive)

## COC(=O)C1(Cc2ccc(C)cc2)Cc2c(C)cccc2C1=O (stereo not drawn)
786-0
  GI50: 20.5 µM (inactive)
A498
  GI50: 13.7 µM (inactive)
A549
  GI50: 18.2 µM (inactive)
ACHN
  GI50: 26.5 µM (inactive)
BT-549
  GI50: 16.3 µM (inactive)
CAKI-1
  GI50: 25.7 µM (inactive)
CCRF-CEM
  GI50: 82 µM (inactive)
COLO 205
  GI50: 12.1 µM (inactive)
DU-145
  GI50: 15.3 µM (inactive)
EKVX
  GI50: 18.2 µM (inactive)
HCC 2998
  GI50: 16.8 µM (inactive)
HCT-116
  GI50: 13.3 µM (inactive)
HCT-15
  GI50: 14.2 µM
HL-60
  GI50: 5.6 µM (inactive)
HOP-62
  GI50: 19.3 µM (inactive)
HOP-92
  GI50: 16.6 µM (inactive)
HT-29
  GI50: 8.83 µM (inactive)
Hs-578T
  GI50: 15.9 µM (inactive)
IGROV-1
  GI50: 16.4 µM (inactive)
K562
  GI50: 8.04 µM (inactive)
KM12
  GI50: 6.75 µM (inactive)
LOX IMVI
  GI50: 18.9 µM (inactive)
M14
  GI50: 16.6 µM (inactive)
MCF7
  GI50: 11.2 µM (inactive)
MDA-MB-231
  GI50: 31.1 µM (inactive)
MDA-MB-435
  GI50: 3.08 µM (inactive)
MDA-N
  GI50: 3.27 µM (inactive)
MOLT-4
  GI50: 20 µM (inactive)
Malme-3M
  GI50: 13 µM (inactive)
NCI-H226
  GI50: 15.3 µM (inactive)
NCI-H23
  GI50: 35.3 µM (inactive)
NCI-H460
  GI50: 17.6 µM (inactive)
NCI-H522
  GI50: 11.2 µM (inactive)
NCI/ADR-RES
  GI50: 14.9 µM (inactive)
OVCAR-3
  GI50: 11.7 µM (inactive)
OVCAR-4
  GI50: 20.3 µM (inactive)
OVCAR-5
  GI50: 24.6 µM (inactive)
OVCAR-8
  GI50: 27.7 µM (inactive)
PC-3
  GI50: 12.4 µM (inactive)
RPMI-8226
  GI50: 15.1 µM (inactive)
RXF 393
  GI50: 9.71 µM (inactive)
SF-268
  GI50: 21.8 µM (inactive)
SF-295
  GI50: 15.4 µM (inactive)
SF-539
  GI50: 16.4 µM (inactive)
SK-MEL-28
  GI50: 26 µM (inactive)
SK-MEL-2
  GI50: 12.9 µM (inactive)
SK-MEL-5
  GI50: 12.9 µM (inactive)
SK-OV-3
  GI50: 14.5 µM (inactive)
SN12C
  GI50: 18.3 µM (inactive)
SNB-19
  GI50: 17.7 µM (inactive)
SNB-75
  GI50: 26.4 µM (inactive)
SR
  GI50: 7.24 µM (inactive)
SW-620
  GI50: 10.9 µM (inactive)
T47D
  GI50: 18.5 µM (inactive)
TK-10
  GI50: 26.2 µM (inactive)
U-251
  GI50: 17.1 µM (inactive)
UACC-257
  GI50: 22.1 µM (inactive)
UACC-62
  GI50: 20.8 µM (inactive)
UO-31
  GI50: 24.7 µM (inactive)

Reference: ChEMBL document CHEMBL1201862, “PubChem BioAssay data set” (2004)
